Reference: ChEMBL document CHEMBL3885881, “DrugMatrix”
Positions of bridges follow the written chain, without caps; N, C: chain ends. Non-standard residues stand in square brackets, D forms with d. Residues, ends and D or L forms follow the SMILES beside them. *: point of attachment. Ileψ(thiazoline)Cys = CC[C@H](C)[C@H](N)C1=N[C@H](C(=O)*)CS1; dOrn = NCCC[C@@H](N)C(=O)O

Species: Rattus norvegicus
Experiment: DrugMatrix - Regimen: Daily Repeat
Assay type: toxicity, organism-based, Sprague-Dawley
Design: regimen Daily Repeat, gender Male, age 6-8 weeks
Settings: in vivo, sc, 380 mg/kg, route subcutaneous, dose level High, […]; for ABSOLUTE BASOPHIL / ABSOLUTE EOSINOPHIL / ABSOLUTE LYMPHOCYTE / ABSOLUTE MONOCYTE / ABSOLUTE SEGMENTED NEUTROPHIL / BASOPHIL / EOSINOPHIL / ERYTHROCYTE COUNT / HEMATOCRIT / HEMOGLOBIN / LEUKOCYTE COUNT / LYMPHOCYTE / MEAN CORPUSCULAR HEMOGLOBIN / MEAN CORPUSCULAR HEMOGLOBIN CONCENTRATION / MEAN CORPUSCULAR VOLUME / MONOCYTE / NEUTROPHIL / NUCLEATED RED BLOOD CELLS / PLATELET COUNT: tissue Blood; for ALANINE AMINOTRANSFERASE / ALBUMIN / ALKALINE PHOSPHATASE / ASPARTATE AMINOTRANSFERASE / BLOOD UREA NITROGEN / CARBON DIOXIDE / CHLORIDE / CHOLESTEROL / CREATINE PHOSPHOKINASE / CREATININE / GLUCOSE / LACTATE DEHYDROGENASE / LIPASE / PHOSPHORUS / POTASSIUM / SODIUM / TOTAL BILIRUBIN / TOTAL PROTEIN / URIC ACID: tissue Plasma

How did the “ABSOLUTE BASOPHIL” value (72 h, time 3 day) turn out when `CC[C@H](C)[C@H](N)C1=N[C@H](C(=O)N[C@@H](CC(C)C)C(=O)N[C@H](CCC(=O)O)C(=O)N[C@H](C(=O)N[C@H]2CCCCNC(=O)[C@H](CC(N)=O)NC(=O)[C@@H](CC(=O)O)NC(=O)[C@H](Cc3cnc[nH]3)NC(=O)[C@@H](Cc3ccccc3)NC(=O)[C@H]([C@@H](C)CC)NC(=O)[C@@H](CCCN)NC2=O)[C@@H](C)CC)CS1` [BACITRACIN] ({Ileψ(thiazoline)Cys}-L[dE]IK[dOrn]I[dF]H[dD]N; lactam 4-C) was run?
The value was 0 CELLS/uL.

And the “ABSOLUTE EOSINOPHIL” value (72 h, time 3 day)?
Its value is 42 CELLS/uL.

What about the “ABSOLUTE LYMPHOCYTE” value (72 h, time 3 day) of the same compound?
The value was 8742.33 CELLS/uL.

And the “ABSOLUTE MONOCYTE” value (72 h, time 3 day)?
Its value is 132.67 CELLS/uL.

And the “ABSOLUTE SEGMENTED NEUTROPHIL” value (72 h, time 3 day)?
Its value is 3249.67 CELLS/uL.

What about the BASOPHIL (72 h, time 3 day) of the same compound?
The BASOPHIL was 0%.

What about the EOSINOPHIL (72 h, time 3 day) of the same compound?
The EOSINOPHIL was 0.33%.

And the “ERYTHROCYTE COUNT” value (72 h, time 3 day)?
The value was 4.93 x10E6/uL.

What about the HEMATOCRIT (72 h, time 3 day) of the same compound?
Its HEMATOCRIT is 31.17%.

And the HEMOGLOBIN (72 h, time 3 day)?
The HEMOGLOBIN was 12.4 G/DL.

And the “LEUKOCYTE COUNT” value (72 h, time 3 day)?
Its value is 12.17 x10E3/uL.

What about the LYMPHOCYTE (72 h, time 3 day) of the same compound?
The LYMPHOCYTE was 71.67%.

What about the “MEAN CORPUSCULAR HEMOGLOBIN” value (72 h, time 3 day) of the same compound?
Its value is 25.1 pg.

What about the “MEAN CORPUSCULAR HEMOGLOBIN CONCENTRATION” value (72 h, time 3 day) of the same compound?
The value was 39.8 G/DL.

And the “MEAN CORPUSCULAR VOLUME” value (72 h, time 3 day)?
Its value is 63.1 fL.

And the MONOCYTE (72 h, time 3 day)?
The MONOCYTE was 1%.

What about the NEUTROPHIL (72 h, time 3 day) of the same compound?
The NEUTROPHIL was 27%.

And the “NUCLEATED RED BLOOD CELLS” value (72 h, time 3 day)?
The value was 0.67 /100WBC.

And the “PLATELET COUNT” value (72 h, time 3 day)?
The value was 1256.33 x10E3/uL.

And the “ALANINE AMINOTRANSFERASE” value (72 h, time 3 day)?
The value was 168 u/L.

And the ALBUMIN (72 h, time 3 day)?
Its ALBUMIN is 3.13 G/DL.

And the “ALKALINE PHOSPHATASE” value (72 h, time 3 day)?
Its value is 252 u/L.

What about the “ASPARTATE AMINOTRANSFERASE” value (72 h, time 3 day) of the same compound?
Its value is 595.67 u/L.

And the “BLOOD UREA NITROGEN” value (72 h, time 3 day)?
The value was 127.67 mg/dL.

What about the “CARBON DIOXIDE” value (72 h, time 3 day) of the same compound?
The value was 23.33 mmol/L.

What about the CHLORIDE (72 h, time 3 day) of the same compound?
Its CHLORIDE is 90.67 MEQ/L.

And the CHOLESTEROL (72 h, time 3 day)?
Its CHOLESTEROL is 114.33 mg/dL.

What about the “CREATINE PHOSPHOKINASE” value (72 h, time 3 day) of the same compound?
The value was 288.33 u/L.

What about the CREATININE (72 h, time 3 day) of the same compound?
The CREATININE was 4.29 mg/dL.

And the GLUCOSE (72 h, time 3 day)?
Its GLUCOSE is 146.67 mg/dL.

What about the “LACTATE DEHYDROGENASE” value (72 h, time 3 day) of the same compound?
The value was 577.67 u/L.

What about the LIPASE (72 h, time 3 day) of the same compound?
Its LIPASE is 8.67 u/L.

And the PHOSPHORUS (72 h, time 3 day)?
The PHOSPHORUS was 15.2 mg/dL.

And the POTASSIUM (72 h, time 3 day)?
Its POTASSIUM is 7.31 MEQ/L.

And the SODIUM (72 h, time 3 day)?
Its SODIUM is 136.43 MEQ/L.

And the “TOTAL BILIRUBIN” value (72 h, time 3 day)?
The value was 0.37 mg/dL.

What about the “TOTAL PROTEIN” value (72 h, time 3 day) of the same compound?
The value was 5.8 G/DL.

And the “URIC ACID” value (72 h, time 3 day)?
Its value is 1.37 mg/dL.

What about the “ABSOLUTE BASOPHIL” value (120 h, time 5 day) of the same compound?
The value was 0 CELLS/uL.

What about the “ABSOLUTE EOSINOPHIL” value (120 h, time 5 day) of the same compound?
Its value is 0 CELLS/uL.

What about the “ABSOLUTE LYMPHOCYTE” value (120 h, time 5 day) of the same compound?
Its value is 16005 CELLS/uL.

What about the “ABSOLUTE MONOCYTE” value (120 h, time 5 day) of the same compound?
The value was 832 CELLS/uL.

What about the “ABSOLUTE SEGMENTED NEUTROPHIL” value (120 h, time 5 day) of the same compound?
The value was 5863 CELLS/uL.

What about the BASOPHIL (120 h, time 5 day) of the same compound?
The BASOPHIL was 0%.

What about the EOSINOPHIL (120 h, time 5 day) of the same compound?
Its EOSINOPHIL is 0%.

And the “ERYTHROCYTE COUNT” value (120 h, time 5 day)?
Its value is 5.69 x10E6/uL.

And the HEMATOCRIT (120 h, time 5 day)?
Its HEMATOCRIT is 34%.

What about the HEMOGLOBIN (120 h, time 5 day) of the same compound?
Its HEMOGLOBIN is 13.77 G/DL.

And the “LEUKOCYTE COUNT” value (120 h, time 5 day)?
Its value is 22.7 x10E3/uL.

And the LYMPHOCYTE (120 h, time 5 day)?
Its LYMPHOCYTE is 70.67%.

And the “MEAN CORPUSCULAR HEMOGLOBIN” value (120 h, time 5 day)?
Its value is 24.2 pg.

What about the “MEAN CORPUSCULAR HEMOGLOBIN CONCENTRATION” value (120 h, time 5 day) of the same compound?
The value was 40.47 G/DL.

What about the “MEAN CORPUSCULAR VOLUME” value (120 h, time 5 day) of the same compound?
Its value is 59.77 fL.

What about the MONOCYTE (120 h, time 5 day) of the same compound?
The MONOCYTE was 3.67%.

And the NEUTROPHIL (120 h, time 5 day)?
Its NEUTROPHIL is 25.67%.

What about the “NUCLEATED RED BLOOD CELLS” value (120 h, time 5 day) of the same compound?
Its value is 0.33 /100WBC.

What about the “PLATELET COUNT” value (120 h, time 5 day) of the same compound?
The value was 1853.67 x10E3/uL.

And the “ALANINE AMINOTRANSFERASE” value (120 h, time 5 day)?
Its value is 104 u/L.

What about the ALBUMIN (120 h, time 5 day) of the same compound?
The ALBUMIN was 3.33 G/DL.

What about the “ALKALINE PHOSPHATASE” value (120 h, time 5 day) of the same compound?
The value was 228.33 u/L.

What about the “ASPARTATE AMINOTRANSFERASE” value (120 h, time 5 day) of the same compound?
The value was 305.67 u/L.

And the “BLOOD UREA NITROGEN” value (120 h, time 5 day)?
The value was 48 mg/dL.

What about the “CARBON DIOXIDE” value (120 h, time 5 day) of the same compound?
The value was 25.33 mmol/L.

What about the CHLORIDE (120 h, time 5 day) of the same compound?
Its CHLORIDE is 96.33 MEQ/L.

What about the CHOLESTEROL (120 h, time 5 day) of the same compound?
The CHOLESTEROL was 99.67 mg/dL.

What about the “CREATINE PHOSPHOKINASE” value (120 h, time 5 day) of the same compound?
The value was 335 u/L.

What about the CREATININE (120 h, time 5 day) of the same compound?
The CREATININE was 0.95 mg/dL.

And the GLUCOSE (120 h, time 5 day)?
The GLUCOSE was 137.67 mg/dL.

What about the “LACTATE DEHYDROGENASE” value (120 h, time 5 day) of the same compound?
Its value is 484.67 u/L.

What about the LIPASE (120 h, time 5 day) of the same compound?
The LIPASE was 9 u/L.

And the PHOSPHORUS (120 h, time 5 day)?
The PHOSPHORUS was 11.2 mg/dL.

And the POTASSIUM (120 h, time 5 day)?
Its POTASSIUM is 6.3 MEQ/L.

What about the SODIUM (120 h, time 5 day) of the same compound?
The SODIUM was 133.53 MEQ/L.

And the “TOTAL BILIRUBIN” value (120 h, time 5 day)?
Its value is 0.17 mg/dL.

What about the “TOTAL PROTEIN” value (120 h, time 5 day) of the same compound?
The value was 6.1 G/DL.

And the “URIC ACID” value (120 h, time 5 day)?
The value was 2.73 mg/dL.
